According to ChEMBL document CHEMBL1201862, “PubChem BioAssay data set” (2004):
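96-well plates; 48 h exposure; 5 concentrations. Endpoints by linear interpolation between flanking doses. Not reached: highest tested concentration assigned. Here, GI50 denotes the concentration required for 50% inhibition of growth.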 The source made the active and inactive calls. Cut-off read from the data, not from the text of the source: active = GI50 up to about 1.1 µM and inactive = higher.

How the values were obtained:
Assay in all cases: inhibition of tumour cell growth, NCI panel, 48 h
[1] = test system: 786-0
[2] = test system: UACC-62
[3] = test system: K562
[4] = test system: CCRF-CEM
[5] = test system: HCT-116
[6] = test system: A549
[7] = test system: RXF 393
[8] = test system: SF-539
[9] = test system: CAKI-1
[10] = test system: IGROV-1
[11] = test system: SN12C
[12] = test system: NCI-H522
[13] = test system: TK-10
[14] = test system: UO-31
[15] = test system: HOP-62
[16] = test system: LOX IMVI
[17] = test system: M14

Measured: GI50

Fc1cccc(C2SCc3nc4ccccc4n32)c1 (stereo not given)
inactive: [1] > 100 µM | [2] 40.1 µM | [3] 28.5 µM | [4] 41.2 µM | [5] 45.9 µM | [6] 43.1 µM | [7] > 10 µM | [8] > 100 µM | [9] 25.7 µM | [10] 39.6 µM | [11] 50.5 µM | [12] 20.2 µM | [13] > 10 µM | [14] 33.8 µM

CN1NC(c2ccccc2)=C(C#N)C(=O)CC1c1ccccc1Cl (stereo not given)
inactive: [1] > 100 µM | [4] > 100 µM | [5] > 100 µM | [6] > 100 µM | [15] 25.3 µM | [7] > 100 µM | [16] > 100 µM | [17] > 100 µM | [9] > 100 µM | [11] > 100 µM | [12] 65.2 µM | [13] > 100 µM

O=[N+]([O-])c1ccc(-c2noc(-c3ccc(Cl)cc3)c2C2=NCCN2)cc1
inactive: [1] > 100 µM | [2] > 100 µM | [3] > 100 µM | [4] > 100 µM | [5] > 100 µM | [6] > 100 µM | [15] > 100 µM | [7] > 100 µM | [16] > 100 µM | [8] > 100 µM | [17] > 100 µM | [9] > 100 µM | [10] > 100 µM | [11] > 100 µM | [12] > 100 µM | [14] > 100 µM

Cc1ccc2sc3cc(=O)cc(C)c-3nc2c1
inactive: [1] 55.1 µM | [2] 14.3 µM | [3] 18.6 µM | [4] 17.8 µM | [5] 80.2 µM | [6] 36.7 µM | [15] 65 µM | [8] 37.9 µM | [17] > 100 µM | [9] 28.5 µM | [10] > 100 µM | [11] 60.4 µM | [12] 20.3 µM | [13] > 100 µM | [14] 26.1 µM

CC(=O)OC1CCn2nnc(CO)c21 (stereo not given)
inactive: [1] > 100 µM | [2] > 100 µM | [3] > 100 µM | [5] > 100 µM | [6] > 100 µM | [7] > 100 µM | [8] 58.5 µM | [9] > 100 µM | [10] > 100 µM | [11] > 100 µM | [12] > 100 µM | [13] > 100 µM | [14] > 100 µM
